Activity calls are given as the source filed them. The calls are words filed in the database; no cut-off is given here.
Columns and labels:
Trypanosoma cruzi [1] = assay: Antitrypanosomal activity against bloodstream trypomastigote form of Trypanosoma cruzi NINOA isolated from infected mouse at the peak of parasitemia assessed as reduction in number of live parasites at 161 uM after 24 hrs; type: functional; parameters: scale not given: the % may be the effect or the level left
Trypanosoma cruzi [2] = assay: Antitrypanosomal activity against bloodstream trypomastigote form of Trypanosoma cruzi NINOA isolated from infected mouse at the peak of parasitemia assessed as reduction in number of live parasites at 178 uM after 24 hrs; type: functional, organism-based
Trypanosoma cruzi [3] = assay: Antitrypanosomal activity against bloodstream trypomastigote form of Trypanosoma cruzi NINOA isolated from infected mouse at the peak of parasitemia assessed as reduction in number of live parasites at 18 to 36 uM after 24 hrs; type: functional, organism-based
Trypanosoma cruzi [4] = assay: Antitrypanosomal activity against bloodstream trypomastigote form of Trypanosoma cruzi NINOA isolated from infected mouse at the peak of parasitemia assessed as reduction in number of live parasites at 5 to 50 ug/ml after 24 hrs
Trypanosoma cruzi [5] = assay: Antitrypanosomal activity against bloodstream trypomastigote form of Trypanosoma cruzi NINOA isolated from infected mouse at the peak of parasitemia assessed as reduction in number of live parasites at 5 to 50 ug/ml after 24 hrs; type: functional, organism-based

`O=C(c1cccc([N+](=O)[O-])c1)c1[nH]c(=O)c2ccccc2c1O` was tested, and the Activity (Trypanosoma cruzi [1]) was 47%.

With `Nc1cccc(C(=O)c2[nH]c(=O)c3ccccc3c2O)c1` the Activity (Trypanosoma cruzi [2]) was “inactive”, the Activity (Trypanosoma cruzi [3]) was “Active” and the Activity (Trypanosoma cruzi [4]) was “Active”.

With `O=C(c1ccccc1)c1[nH]c(=O)c2ccccc2c1O` the Activity (Trypanosoma cruzi [5]) was “inactive”.

In the case of `O=C(Cn1ccnc1[N+](=O)[O-])NCc1ccccc1`, the Activity (Trypanosoma cruzi [4]) is reported as “Active”.

Reference: ChEMBL document CHEMBL2203182, “Identification of benzoylisoquinolines as potential anti-Chagas agents” (2012)
